The values below come from article PMC4877593, “Design and Synthesis of Potent in Vitro and in Vivo Anticancer Agents Based on 1-(3′,4′,5′-Trimethoxyphenyl)-2-Aryl-1H-Imidazole” (Scientific Reports, 2016).

For series [1], the system named is HT-29. Put plainly: In vitro antiproliferative activity (MTT), HT-29. The following applies: Homo sapiens, tumor cell proliferation, 72 h, mean ± SE. Format: cell-based. As to the method: (§1) Human T-cell leukemia (CCRF-CEM and Jurkat) and human B-cell leukemia (SEM) cells were grown in RPMI-1640 medium (Gibco, Milano, Italy). Breast adenocarcinoma (MCF7), human cervix carcinoma (HeLa), and human colon adenocarcinoma (HT-29) cells were grown in DMEM medium (Gibco, Milano, Italy), all supplemented with 115 units/mL penicillin G (Gibco, Milano, Italy), 115 μg/mL streptomycin (Invitrogen, Milano, Italy), and 10% fetal bovine serum (Invitrogen, Milano, Italy). Stock solutions (10 mM) of the different compounds were obtained by dissolving them in dimethyl sulfoxide (DMSO). Individual wells of a 96-well tissue culture microtiter plate were inoculated with 100 μL of complete medium containing 8 × 10^3 cells. The plates were incubated at 37 °C in a humidified 5% CO2 incubator for 18 h prior to the experiments. After medium removal, 100 μL of fresh medium containing the test compound at different concentrations was added to each well in triplicate and incubated at 37 °C for 72 h. The percentage of DMSO in the medium never exceeded 0.25%. This was also the maximum DMSO concentration in all cell-based assays described below. […] Different concentrations of the test compounds were added, and viability was determined 72 h later by the MTT test. For cytotoxicity evaluations in resting PBL cultures, non-adherent cells were resuspended (5 × 10^5 cells/mL) and treated for 72 h with the test compounds, as described above.

The subject of series [2] is A549. Put plainly: In vitro antiproliferative activity (MTT), A549. It is filed as cell-based. Particulars: Homo sapiens, tumor cell proliferation, 72 h, mean ± SE. As to the method: as §1
Series [3] deals with panel of seven human tumor cell lines. Put plainly: Antiproliferative activity across the panel of seven human tumor cell lines. It is filed as cell-based. On the procedure:
as §1

The test system of series [4] is bovine brain tubulin. Put plainly: Inhibition of tubulin polymerization (turbidimetry). Format: biochemical. As to the method: To evaluate the effect of the compounds on tubulin assembly in vitro[22], varying concentrations of compounds were preincubated with 10 μM bovine brain tubulin in glutamate buffer at 30 °C and then cooled to 0 °C. After addition of 0.4 mM GTP (final concentration), the mixtures were transferred to 0 °C cuvettes in a recording spectrophotometer equipped with an electronic temperature controller and warmed to 30 °C. Tubulin assembly was followed turbidimetrically at 350 nm. […] The ability of the test compounds to inhibit colchicine binding to tubulin was measured as described, except that the reaction mixtures contained 1 μM tubulin, 5 μM [^3H]colchicine and 1 or 5 μM test compound.

The subject of series [5] is BL6-B16 mouse melanoma cell line. Put plainly: Mouse allograft (syngeneic) tumor model. It is filed as in vivo. Particulars: for reduction of tumor mass: doses on days 9, 11 and 14, C57BL/6 mice. On the procedure:
[…] As reference compound, CA-4P (1b) was used at 30 mg/kg. The BL6-B16 mouse melanoma cell line, injected subcutaneously in syngeneic C57/BL6 mice, is able to proliferate and generate tumor masses.
Figure 9 Inhibition of mouse allograft growth in vivo by compound 4o. Male C57BL/6 mice were injected subcutaneously at their dorsal region with […] BL6-B16 murine melanoma cells. […] Injections were given intraperitoneally at the days indicated by the arrows. Data are presented as mean ± SEM of tumor volume at each time point for 5 animals per group. *p < 0.05, **p < 0.01 ***p < 0.001 vs. control.
Six week old C57BL/6 mice (Charles River, Calco) were injected subcutaneously into the dorsolateral flank with 2.5 × 10^5 BL6-B16 murine melanoma cells in 200 μL-total volume of PBS. When tumors were palpable, animals were treated intraperitoneally every other day with different doses of test compounds dissolved in 50 μL of DMSO. Tumors were measured in two dimensions, and tumor volume was calculated according to the formula V = (D × d^2)/2, where D and d are the major and minor perpendicular tumor diameters, respectively.

Series [6] deals with HeLa. Put plainly: Annexin-V/PI apoptosis assay, HeLa. It is filed as cell-based, human. Particulars: 24 h, lowest concentration used (50 nM). As to the method:
(§2) To evaluate the induction of apoptosis by compound 4o in two cell lines (HeLa and Jurkat), we used an annexin-V/PI assay. Dual staining for annexin-V and with PI permits discrimination between live cells (annexin-V^−/PI^−), early apoptotic cells (annexin-V^+/PI^−), late apoptotic cells (annexin-V^+/PI^+) and necrotic cells (annexin-V^−/PI^+).
(§3) Cell death was determined by flow cytometry of cells double stained with annexin V/FITC and PI. The Coulter Cytomics FC500 (Beckman Coulter) was used to measure the surface exposure of phosphatidyl serine on apoptotic cells according to the manufacturer’s instructions (Annexin-V Fluos, Roche Diagnostics).

The test system of series [7] is Jurkat. Put plainly: Annexin-V/PI apoptosis assay, Jurkat. Particulars: 24 h, lowest concentration used (50 nM). It is filed as cell-based, human. As to the method: as §2, §3
Series [8] has as its system Jurkat. Put plainly: Mitochondrial membrane potential (JC-1), Jurkat. It is filed as cell-based, human. The following applies: Jurkat, 50, 100 and 250 nM; time- and concentration-dependent. As to the method:
Mitochondria play an essential role in the propagation of apoptosis. It is well established that, at an early stage, apoptotic stimuli alter the mitochondrial transmembrane potential (Δψmt). Δψmt was monitored by the fluorescence of the dye JC-1. […] This occurred in a time- and concentration-dependent fashion, and, in both cell lines, a significant increase was observed after a 6 h treatment. The disruption of Δψmt is associated with the appearance of annexin-V positivity in the treated cells when they are in an early apoptotic stage. […] Cells were treated with the indicated concentration of compound for 24 or 48 h and then stained with the fluorescent probe JC-1 for analysis of mitochondrial potential or H2-DCFDA for the evaluation of ROS levels. Cells were then analyzed by flow cytometry as described in the experimental section.

Series [9] relates to HeLa. Put plainly: ROS production (H2-DCFDA), HeLa. Particulars: in comparison with control cells. It is filed as cell-based, human. On the procedure: Figure 7 Assessment of mitochondrial membrane potential (Δψmt) and production of ROS after treatment of HeLa (Panels A,B) or Jurkat (Panels C,D) cells with compound 4o. Cells were treated with the indicated concentration of compound for 24 or 48 h and then stained with the fluorescent probe JC-1 for analysis of mitochondrial potential or H2-DCFDA for the evaluation of ROS levels. Cells were then analyzed by flow cytometry as described in the experimental section.
It is also well known that dissipation of mitochondrial potential is associated with mitochondrial production of ROS[38]. Superoxide anion is produced by mitochondria due to a shift from the normal 4-electron reduction of O2 to a 1-electron reduction when cytochrome c is released from mitochondria upon apoptosis. Therefore, we investigated whether ROS production increased after treatment with compound 4o. We utilized the dye 2,7-dichlorodihydrofluorescein diacetate (H2-DCFDA), which is oxidized to the fluorescent compound dichlorofluorescein (DCF) upon ROS induction.

[10] abbreviates: highest dose (7.5 mg/kg i.p.), mice, data not shown.

Like-named read-outs stand apart in the source and are kept apart here.

Usually IC50 stands for the concentration needed to halve the response being measured.

Take `CCOc1ccc(-c2nccn2-c2cc(OC)c(OC)c(OC)c2)cc1Cl` [Compound 4o, 2-(3′-Chloro-4′-ethoxyphenyl)-1-(3′,4′,5′-trimethoxyphenyl)-1H-imidazole]: the IC50 in series [1] was 0.4 ± 0.06 nM; in [2] it was 0.57 ± 0.17 nM; in series [3] (average over the seven cell lines, read-out: average IC50 values) it was 1.3 nM; in [3] (range over seven cancer cell lines, read-out: IC50 values in the seven cell lines (range)), 0.4 to 3.8 nM; in series [4] (repeated beside the calculated energies, read-out: inhibition of tubulin polymerization IC50 (Table 4)), 870 nM; in series [4] (tubulin at 10 μM, 20 min incubation, read-out: Tubulin assembly IC50 ± S.D.), 870 nM. Further, the figures for the “reduction of tumor mass” value in series [5] (1 mg/kg i.p.), in series [5] (3.5 mg/kg i.p.) and in series [5] (7.5 mg/kg i.p.) were 26.0%, 32.2% and 45.8%, respectively. In addition, the animal body weight result in series [5] (setting [10]) was “did not cause a decrease in animal body weight”. For the same compound, in series [5] (setting [10]), the signs of toxicity result is “did not present any sign of toxicity”. Also, the annexin-V positive cells result in [6] and in series [7] was “significant accumulation of annexin-V positive cells” each time. For the same compound, the “percentage of cells with low Δψmt (JC-1)” value in [8] is recorded as “remarkable increase”. The “ROS production (H2-DCFDA)” value in series [9] is on record as “induced the production of large amounts of ROS”.
